Data on two molecules can be found in US20260151384A1, “ISOQUINOLINE DERIVATIVES AS PROTEIN DEGRADERS, E7 DEGRADERS, ANTIVIRALS, TUMOR THERAPEUTICS AND IMMUNE SUPPRESSIVES” (priority 2022, published 2026).

For data set [1], the system named is SARS-CoV-2. It counts as cell-based.
For another data set, the system named is 4E-BP1. Briefly: Western blot of 4E-BP1 phosphorylation in CaSki cells. It counts as cell-based, human. Conditions: 6 h, 10 μM & 5 μM. The source says: Thus, clearly distinguishing downstream-effects in comparison to a general TOR Kinase inhibition.
A short description of data set [2]: Pharmacokinetics of VSP034 and VSP035, oral liposomal formulation. It counts as in vivo, female Sprague-Dawley rats. As to conditions: 100 mg/kg oral gavage; Student's t test, significant. The protocol: The pharmacokinetic parameters of VSP034 and VSP035 encapsulated as liposomal formulation were assessed after the administration of a single 100 mg/kg dose by oral gavage to 6 female Sprague-Dawley rats weighting 250 grams (±25g). The animals were randomized into two experimental groups (Groups 1 and 2), each composed of 3 rats. Rats belonging to group 1 were administered with VSP034 and rats belonging to group 2 were administered with VSP035. Blood was collected at baseline and 15 min, 30 min, 1, 2, 4, 6, 8, and 24 hours after the oral gavage. The rats were sacrificed 24 hours after the dosing. Blood was collected at each timepoint from the caudal vein, with the exception of the last collection (24 hours), which was performed by intracardiac puncture at the moment of sacrifice under isoflurane anesthesia. The animals were weighted immediately before the dosing to assess the proper dose and carefully monitored during the experiment. […] The main pharmacokinetic parameters (half-life, t1/2; time to maximum plasma concentration, Tmax; maximum plasma concentration, Cmax, AUC Extrapolated to Infinity, AUC0-inf; mean residence time, MRT; Apparent Volume of Distribution During Terminal Phase, VZ/F; and apparent oral clearance, CL/F) were calculated from the coefficients and exponents of the best-fits by using standard formulae.

For the next data set, the system named is PDL-1. Briefly: Western blot of PDL-1 in CaSki cells. As to conditions: 4 and 8 hours, dose dependent. It counts as cell-based, human. The protocol:
24 h after seeding, cells were treated with VSP035, cycloheximide (CHX) and/or MG132 protasome inhibitor as indicated. Cells were harvested for analysis for BY WB. […] In particular, faster migrating band abundancy was regulated by proteasome inhibitor MG132 and the protein was destabilized in the presence of CHX.
(A western blot detects proteins with antibodies after separation by electrophoresis.)

In data set [3] the test system is SARS-CoV-2. Briefly: SARS-CoV-2 antiviral activity, mono treatment or combinations, Vero E6 cells (Test 18). It is filed as cell-based. As to conditions: 10, 5, 2.5, 1.25, 0.625 μM; FIG. 10. The source says: SARV-CoV-2 antiviral activity of VSP035 from mono treatment, or in combination with various pharmacological drug substances at various concentrations shown by the bars from left to the right. Y axis % Inhibition. Due to lethal concentrations for Vero E6 cells, dose dependency is visible at non-lethal doses only (median of multiple experiments n4 is shown); Concentrations (left to right) Compounds and respective assay concentrations in μM are, “constant” means same concentration for the series (X axis, numbers for series): (FIG. 10).

Another data set addresses HPV16 E7 protein (Human papillomavirus type 16, UniProt P03129). Briefly: Western blot of E7 steady state level in CaSki cells. It is filed as cell-based. As to conditions: 10 μM, up to 24 hours. On the procedure: Reagents for Extract preparation and Western Blotting: Extraction Buffer: 2.5× (Tris 0.25M pH6.8, Glycerol 50%, SDS 10%), Gels: 4-12% gradient gels (Bolt® 4-12% Bis-Tris Plus Gel). MES Buffer: 50 mM MES, 50 mM Tris Base, 0.1% SDS, 1 mM EDTA, pH 7.3, Blotting membrane: Nitrocelulose 0.2 μm (Whatman Protran #10401394), 3MM filter paper (e.g. Whatman 3MM Chr, #3030917). Western Detection Reagents: WB Wash Buffer 1× (TBET): 20 mM Tris, 150 mM NaCl, 0.125% Tween20, pH 7.8; skim-milk powder (less than 0.15% fat content). Phosphate buffered saline (PBS) 1×: prepared as 1 L add 8 g sodium chloride (NaCl), 0.2 g potassium chloride (KCl), 1.44 g sodium phosphate, dibasic (Na2HPO4) and 0.24 g potassium phosphate, monobasic (KH2PO4) to 1 L dH2O, pH adjusted to 7.2.
B) For cells in cell culture the following procedure for the preparation of a total cell extract is used. Freshly seeded cells are grown for 24 hours to obtain 65-75% confluency (corresponds for CaSki cells to a plating of approx. 2×10^6 cells/10 cm Ø cell culture dish). Cell culture dishes with medium are out on ice for 5 minutes. […]
Dilute secondary anti-mouse HRP antibody in WB Blocking Buffer according to manufacturer instruction (e.g. CST Anti mouse IgG HRP-linked Ab, #7076, 1:3000). […] The membranes are developed using standard chemo luminescence (ECL) detection systems following imaging with Licor or Viber devices. […]

The test system of data set [4] is SARS-CoV-2. Briefly: microbe, parasite or virus in culture. As to conditions: 1.25 μM, n4. It is filed as cell-based.
In data set [5] the test system is p38, JNK1, ERK1/2, PKC, or Src-like kinases. As to conditions: cited from earlier work.

The inhibition is the change of the read-out against control, counted positive when it falls. A higher inhibition goes with strong suppression.

HPV16 E7 protein, sequence (P03129 whole entry): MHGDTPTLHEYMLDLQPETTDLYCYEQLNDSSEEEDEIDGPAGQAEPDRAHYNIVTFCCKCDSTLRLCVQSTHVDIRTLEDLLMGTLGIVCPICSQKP

In the case of `CN1CCC(CN2C(=O)c3ccccc3[C@H](C(=O)Nc3cccc(N4CCN(C)CC4)c3)[C@H]2c2ccc(C(F)(F)F)cc2)CC1` [VSP035, (3S,4S)—N-[3-(4-methylpiperazin-1-yl)phenyl]-2-[(1-methylpiperidin-4-yl)methyl]-1-oxo-3-[4-(trifluoromethyl)phenyl]-1,2,3,4-tetrahydroisoquinoline-4-carboxamide], the inhibition with SARS-CoV-2 [1] is on record as 72±7.7%. Also, the “phosphorylation state of 4E-BP1” value with 4E-BP1 is “dose dependent hypophosphorylation”. Moreover, in data set [2], the “AUC higher than that of VSP034” value is recorded as 4 fold. The “regulation of PDL-1 (western blot)” value with PDL-1 was “valid pdl-1 destabilizer”. Further, the “antiviral activity as single agent” value in the data set on SARS-CoV-2 [3] is on record as “Robust antiviral activities”. In addition, the “HPV 16 E7 protein degradation time course (western blot)” value on HPV16 E7 protein is “stable e7 reduction”.
Regarding `Nc1ncnc2n[nH]c(Nc3ccc(F)cc3)c12` [CGP57380], the “% Inhibition of SARV-CoV-2 virus activity” value in the data set with SARS-CoV-2 [4] was 17.71%. In addition, in data set [5], the “inhibitory activity against p38, JNK1, ERK1/2, PKC, or Src-like kinases” value is reported as “no inhibitory activity”.
